Activity calls are given as the source filed them.
How the values were obtained:
[1] = luciferase reporter signal suppression in cells – H4 neuroglioma cells, luminescence, dose response (AID 1990); format: functional, cell-based
Protein Tat = molecular target: T1, Protein Tat (Human immunodeficiency virus type 1 group M subtype B (isolate HXB2)(HIV-1), UniProt P04608); format: functional;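 note: tat binding to TAR RNA read out by fluorescence polarization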
T1 sequence (P04608 whole entry): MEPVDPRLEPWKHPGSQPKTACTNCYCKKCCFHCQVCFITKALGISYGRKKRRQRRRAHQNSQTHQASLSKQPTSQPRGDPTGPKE

[2] = Luminescence Cell-Based Dose Response HTS to Identify Inhibitors of 5'UTR Stem-Loop Driven Prion Protein mRNA Translation in H4 Neuroglioblastoma Cells. [Related pubchem assays: 1827 (Project Summary), 1813 (Primary HTS)]; format: functional
[3] = alpha-synuclein stem-loop luciferase translation blockers – H4 neuroglioma cells, luminescence, confirmation (AID 1988); format: functional, cell-based
Albumin = Albumin (Bos taurus, UniProt P02769); assay: Counterscreen for inhibitors of T-cell receptor (TCR)-CD3 interaction: Fluorescence-based biochemical high throughput dose response assay to identify inhibitors of T-cell receptor (TCR)-CD3 interaction using a TAMRA-labeled BSA probe.; format: functional
Albumin, sequence (P02769 whole entry): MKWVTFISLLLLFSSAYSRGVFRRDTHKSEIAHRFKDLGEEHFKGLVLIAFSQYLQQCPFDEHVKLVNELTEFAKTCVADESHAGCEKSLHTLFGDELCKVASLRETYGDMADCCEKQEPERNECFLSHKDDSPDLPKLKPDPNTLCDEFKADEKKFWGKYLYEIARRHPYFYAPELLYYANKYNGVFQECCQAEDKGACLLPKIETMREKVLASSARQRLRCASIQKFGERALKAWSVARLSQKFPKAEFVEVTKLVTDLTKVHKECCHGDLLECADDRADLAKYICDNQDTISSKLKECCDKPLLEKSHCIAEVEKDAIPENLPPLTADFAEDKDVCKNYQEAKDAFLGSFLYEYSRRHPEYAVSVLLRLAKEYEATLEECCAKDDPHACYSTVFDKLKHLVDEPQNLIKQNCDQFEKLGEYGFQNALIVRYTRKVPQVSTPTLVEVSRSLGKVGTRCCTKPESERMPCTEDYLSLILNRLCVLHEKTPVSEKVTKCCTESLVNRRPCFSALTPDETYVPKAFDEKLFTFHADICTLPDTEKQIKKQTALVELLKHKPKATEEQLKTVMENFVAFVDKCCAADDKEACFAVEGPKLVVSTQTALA

[4] = molecular target: NAD-dependent protein deacylase sirtuin-5, mitochondrial (Homo sapiens, UniProt Q9NXA8); assay: sirtuin-5 deacylation blockers, concentration series – biochemical, fluorescence imaging, cherry-pick, set 5, dose response (AID 720591);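 note: desuccinylation of succinyl peptide AMC substrate read as fluorescence after trypsin release; potency of inhibitors that lower fluorescence and may act on trypsin instead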
NAD-dependent protein deacylase sirtuin-5, mitochondrial, sequence (Q9NXA8 whole entry): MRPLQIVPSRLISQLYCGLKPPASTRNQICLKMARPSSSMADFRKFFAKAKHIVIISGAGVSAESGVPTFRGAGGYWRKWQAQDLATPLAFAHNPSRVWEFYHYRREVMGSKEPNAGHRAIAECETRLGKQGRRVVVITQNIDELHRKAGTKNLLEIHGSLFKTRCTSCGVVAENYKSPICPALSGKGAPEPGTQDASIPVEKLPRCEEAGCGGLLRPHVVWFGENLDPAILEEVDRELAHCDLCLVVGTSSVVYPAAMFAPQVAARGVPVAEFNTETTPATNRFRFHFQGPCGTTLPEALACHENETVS

[5] = A549 cell cytotoxicity, dose response, cytotoxicity control, plate reader, cherry-pick, antagonist series (AID 743412); format: functional, cell-based
[6] = toxicity toward HepG2 liver cells – cell-based, plate reader, cherry-pick, antagonist series, cytotoxicity control, dose response (AID 743416); format: functional
[7] = blockade of melanocortin 4 receptor signaling – cell-based, plate reader, cherry pick, counter-screen for LGR2 antagonist project, dose response (AID 743444); format: functional;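 note: transfected HEK 293 cells stimulated with alpha-MSH peptide; potency of inhibitors of the alpha-MSH evoked signal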
[8] = blockers of bursicon-stimulated LGR2 cAMP reporter – cell-based, HEK293, CRE-luciferase reporter, cherry pick, set 2, dose response (AID 743343); format: functional;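 note: transfected cells were stimulated with diluted bursicon conditioned medium after compound addition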
Protein RecA = molecular target: T2, Protein RecA (Mycobacterium tuberculosis, UniProt P9WHJ3); assay: Fluorescence Cell-Free Homogeneous Dose Retest to Identify Inhibitors of RecA-Intein Splicing Activity. [Related pubchem assays (depositor defined):AID2097, AID2223, AID489010, AID492950]; format: functional
T2 sequence (P9WHJ3 whole entry): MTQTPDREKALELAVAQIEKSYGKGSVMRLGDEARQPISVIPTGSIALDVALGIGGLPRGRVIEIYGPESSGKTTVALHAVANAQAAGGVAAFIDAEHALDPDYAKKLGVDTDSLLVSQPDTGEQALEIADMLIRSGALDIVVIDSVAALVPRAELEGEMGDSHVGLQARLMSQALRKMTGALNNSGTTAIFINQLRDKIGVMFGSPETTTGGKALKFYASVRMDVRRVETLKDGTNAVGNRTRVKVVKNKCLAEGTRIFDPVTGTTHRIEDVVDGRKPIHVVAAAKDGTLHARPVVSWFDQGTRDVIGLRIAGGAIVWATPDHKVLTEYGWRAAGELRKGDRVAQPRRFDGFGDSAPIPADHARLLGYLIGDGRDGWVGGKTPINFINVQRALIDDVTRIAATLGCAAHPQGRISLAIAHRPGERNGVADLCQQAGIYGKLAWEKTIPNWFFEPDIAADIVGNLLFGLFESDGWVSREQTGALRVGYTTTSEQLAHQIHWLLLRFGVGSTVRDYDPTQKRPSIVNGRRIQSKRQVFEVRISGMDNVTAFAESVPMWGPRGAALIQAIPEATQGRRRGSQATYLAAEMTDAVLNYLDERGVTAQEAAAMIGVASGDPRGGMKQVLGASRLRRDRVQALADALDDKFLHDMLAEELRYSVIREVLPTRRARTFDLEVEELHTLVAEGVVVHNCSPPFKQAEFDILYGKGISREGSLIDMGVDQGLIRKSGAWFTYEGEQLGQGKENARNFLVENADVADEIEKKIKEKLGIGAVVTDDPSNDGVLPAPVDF

[9] = molecular target: Disintegrin and metalloproteinase domain-containing protein 17 (Homo sapiens, UniProt P78536); assay: exosite inhibitors of ADAM17, dose response, biochemical (AID 743260)
Disintegrin and metalloproteinase domain-containing protein 17, sequence (P78536 whole entry, the tested form may be a part): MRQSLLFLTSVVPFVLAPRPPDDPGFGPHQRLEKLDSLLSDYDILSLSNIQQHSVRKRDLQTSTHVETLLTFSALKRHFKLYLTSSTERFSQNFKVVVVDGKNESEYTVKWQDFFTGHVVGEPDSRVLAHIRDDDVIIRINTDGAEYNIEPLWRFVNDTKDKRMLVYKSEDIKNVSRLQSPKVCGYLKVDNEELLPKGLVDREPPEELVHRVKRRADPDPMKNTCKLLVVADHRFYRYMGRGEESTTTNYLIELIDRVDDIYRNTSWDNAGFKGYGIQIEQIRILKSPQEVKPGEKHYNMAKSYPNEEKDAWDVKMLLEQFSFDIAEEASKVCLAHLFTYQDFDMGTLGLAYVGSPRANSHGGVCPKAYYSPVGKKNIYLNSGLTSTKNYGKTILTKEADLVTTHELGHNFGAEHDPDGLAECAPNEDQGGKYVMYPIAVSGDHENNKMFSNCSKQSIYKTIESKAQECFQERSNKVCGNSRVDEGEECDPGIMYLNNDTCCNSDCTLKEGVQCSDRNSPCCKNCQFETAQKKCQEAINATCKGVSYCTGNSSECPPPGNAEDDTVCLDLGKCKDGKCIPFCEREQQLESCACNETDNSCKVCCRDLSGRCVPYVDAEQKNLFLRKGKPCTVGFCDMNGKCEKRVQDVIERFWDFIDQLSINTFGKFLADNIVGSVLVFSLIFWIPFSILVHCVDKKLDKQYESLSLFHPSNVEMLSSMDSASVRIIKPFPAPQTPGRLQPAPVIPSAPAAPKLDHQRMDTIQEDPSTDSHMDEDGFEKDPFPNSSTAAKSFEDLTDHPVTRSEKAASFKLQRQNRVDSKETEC

[10] = molecular target: T3, Replicative DNA helicase DnaB (Mycobacterium tuberculosis, UniProt P9WMR3); assay: DnaB intein splicing inhibitors, dose response, biochemical, cell-free fluorescence (AID 449749); format: functional
T3 sequence (P9WMR3 whole entry): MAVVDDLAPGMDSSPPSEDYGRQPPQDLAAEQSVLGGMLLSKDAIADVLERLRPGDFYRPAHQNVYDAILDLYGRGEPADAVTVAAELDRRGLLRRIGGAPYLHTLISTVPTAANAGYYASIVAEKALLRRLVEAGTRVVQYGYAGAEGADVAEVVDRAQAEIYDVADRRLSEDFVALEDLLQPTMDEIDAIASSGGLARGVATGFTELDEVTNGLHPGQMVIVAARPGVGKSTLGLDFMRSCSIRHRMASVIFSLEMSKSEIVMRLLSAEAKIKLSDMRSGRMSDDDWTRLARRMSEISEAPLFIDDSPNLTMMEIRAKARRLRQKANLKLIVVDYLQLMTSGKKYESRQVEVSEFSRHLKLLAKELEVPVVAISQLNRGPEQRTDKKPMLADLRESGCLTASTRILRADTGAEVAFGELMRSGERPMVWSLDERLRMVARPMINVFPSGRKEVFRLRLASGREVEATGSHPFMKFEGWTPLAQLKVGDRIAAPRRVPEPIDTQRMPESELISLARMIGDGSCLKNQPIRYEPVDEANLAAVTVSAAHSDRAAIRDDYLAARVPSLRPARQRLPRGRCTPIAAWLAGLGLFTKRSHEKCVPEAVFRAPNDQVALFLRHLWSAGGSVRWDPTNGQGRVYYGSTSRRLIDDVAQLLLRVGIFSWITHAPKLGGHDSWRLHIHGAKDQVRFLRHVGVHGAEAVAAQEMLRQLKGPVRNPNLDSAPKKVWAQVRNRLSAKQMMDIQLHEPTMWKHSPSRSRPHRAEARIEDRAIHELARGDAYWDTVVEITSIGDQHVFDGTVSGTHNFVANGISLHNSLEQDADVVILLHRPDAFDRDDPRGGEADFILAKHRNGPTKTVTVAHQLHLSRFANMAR

Paired box protein Pax-8 = Paired box protein Pax-8 (Homo sapiens, UniProt Q06710); assay: PAX8 transcriptional activity inhibition in RMG-I – RMG-I cells, luciferase, cherry-pick, dose response (AID 687027); format: functional, cell-based;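 note: luciferase reporter driven by Pax8 target thyroperoxidase promoter measured by SteadyGlo luminescence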
Paired box protein Pax-8, sequence (Q06710 whole entry): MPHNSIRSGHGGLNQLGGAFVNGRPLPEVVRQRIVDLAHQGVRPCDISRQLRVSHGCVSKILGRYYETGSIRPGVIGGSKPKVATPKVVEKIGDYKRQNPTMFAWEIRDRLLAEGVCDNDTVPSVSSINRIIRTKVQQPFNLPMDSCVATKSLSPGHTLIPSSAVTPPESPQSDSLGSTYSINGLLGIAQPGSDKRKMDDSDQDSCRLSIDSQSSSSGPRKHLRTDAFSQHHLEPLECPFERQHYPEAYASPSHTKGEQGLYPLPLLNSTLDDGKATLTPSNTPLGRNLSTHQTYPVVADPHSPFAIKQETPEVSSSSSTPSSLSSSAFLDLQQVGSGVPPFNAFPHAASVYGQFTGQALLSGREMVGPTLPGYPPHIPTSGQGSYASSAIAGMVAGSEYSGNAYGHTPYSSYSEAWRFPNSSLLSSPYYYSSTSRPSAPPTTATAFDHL

[11] = IGROV1 cell killing – plate reader, dry powder samples, PAX8 inhibitor project, dose response (AID 743043); format: functional, cell-based; settings: IGROV-1
[12] = OV-90 cell viability loss – plate reader, dry powder, SA8, PAX8 inhibitor project, dose response (AID 743149); format: functional, cell-based
[13] = OVCAR-3 cell viability loss – plate reader, dry powder samples, PAX8 inhibitor project, dose response (AID 743044); format: functional, cell-based
[14] = PAX8-dependent cell viability loss – plate reader, dry powder, dose response (AID 743049); format: functional, cell-based
[15] = OVCAR4 cell viability loss – plate reader, dry powder, SA11, cytotoxicity control for PAX8 inhibitor project, dose response (AID 743150); format: functional, cell-based; settings: OVCAR-4
Vero = assay: cells; format: functional; settings: Chlorocebus sabaeus
[16] = molecular target: Dual specificity tyrosine-phosphorylation-regulated kinase 1A (Rattus norvegicus, UniProt Q63470); format: biochemical, Homo sapiens
[17] = molecular target: Luciferin 4-monooxygenase (Photinus pyralis, UniProt P08659); assay: inhibition of purified Photinus pyralis luciferase – biochemical, luminescence, dose response (AID 1891)
Luciferin 4-monooxygenase, sequence (P08659 whole entry): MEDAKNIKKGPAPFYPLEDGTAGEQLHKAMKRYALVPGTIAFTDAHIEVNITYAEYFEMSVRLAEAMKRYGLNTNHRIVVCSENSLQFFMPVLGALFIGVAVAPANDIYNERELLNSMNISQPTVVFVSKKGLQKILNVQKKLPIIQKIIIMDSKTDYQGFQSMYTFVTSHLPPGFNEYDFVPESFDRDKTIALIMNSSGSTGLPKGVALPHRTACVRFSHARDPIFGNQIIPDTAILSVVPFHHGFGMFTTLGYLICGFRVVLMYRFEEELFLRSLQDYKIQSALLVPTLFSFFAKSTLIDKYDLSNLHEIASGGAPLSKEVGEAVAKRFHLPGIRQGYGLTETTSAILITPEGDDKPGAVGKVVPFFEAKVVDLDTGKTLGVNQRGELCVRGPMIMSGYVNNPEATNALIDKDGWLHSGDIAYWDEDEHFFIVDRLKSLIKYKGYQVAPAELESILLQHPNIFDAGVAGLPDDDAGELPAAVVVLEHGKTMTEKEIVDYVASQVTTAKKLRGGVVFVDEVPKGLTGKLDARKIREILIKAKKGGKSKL

[18] = Luminescence Cell-Based Dose Confirmation HTS to Identify Inhibitors of Platelet Dense Granule Release. [Related pubchem assays: 1663 (Primary HTS), 1678 (Summary of Project)]; format: functional

With CC(C)C[C@H](NC(=O)c1[nH]cnc1C(=O)N1CCN(c2ccccc2)CC1)C(=O)OC(C)(C)C the EC50 [1] was 14.5 µM (active), the IC50 (Protein Tat) was > 100 µM (active) and the EC50 [2] was 65.1 µM (active). The EC50 [3] was 26.5 µM (active).

In the case of O=C(CCl)NNC(=O)c1c(O)c2ccccc2[nH]c1=O, the IC50 (Albumin) is reported as > 94 µM (inactive).

In the case of Cc1ccc(Cn2c(N3CCNCC3)nc3c2c(=O)[nH]c(=O)n3C)cc1, the AC50 [4] is reported as 25.2 µM (active).

For COc1ccc2nc(NC(=O)c3ccccc3F)sc2c1, the AC50 [5] was > 52 µM (inactive), the AC50 [6] was > 52 µM (inactive) and the AC50 [7] was 27.2 µM (active). The AC50 [8] was 19.9 µM (active).

With COc1cc(C(c2c(C)[nH][nH]c2=O)c2c(C)[nH][nH]c2=O)ccc1OCc1ccc([N+](=O)[O-])cc1 the EC50 (Protein RecA) was 178 nM (active), the IC50 [9] was > 69.5 µM (inactive) and the AC50 [10] was 338 nM (active).

For Cc1noc(C)c1COc1ccc(C(=O)NNC(=O)c2ccccc2O)cc1, the IC50 (Albumin) was > 94.1 µM (inactive).

In the case of O=C(CCS(=O)(=O)c1ccccc1)Nc1nc2ccc(F)cc2s1, the AC50 (Paired box protein Pax-8) is reported as 3.55 µM (active), the AC50 [11] is reported as 36.9 µM (active) and the AC50 [12] is reported as > 100 µM (inactive). For the same molecule, the AC50 [13] was 28 µM (active), the AC50 [14] was 20.3 µM (active) and the AC50 [15] was > 100 µM (inactive).

In the case of O=C1N(c2ccccc2C(F)(F)F)O[C@@]1(c1ccccc1)C1CCCCC1, the CC50 (Vero) is reported as > 25 µM (active).

In the case of O=C(c1ccccc1)c1ccc2cc(O)ccc2c1, the AC50 [16] is reported as 9.25 µM (active), the EC50 [17] is reported as 752 nM (active) and the EC50 [18] is reported as 7.74 µM (active).
